# Test results reported in ChEMBL document CHEMBL4507293 (2021).
# Tests used:
# [1] = target: Serine/threonine-protein kinase MAK (Homo sapiens) (UniProt P20794); conditions: Compound concentration 100.0 nM
# [2] = target: Cytoplasmic tyrosine-protein kinase BMX (Homo sapiens) (UniProt P51813); conditions: Compound concentration 100.0 nM
# [3] = target: Calcium-dependent protein kinase 1 (Plasmodium falciparum) (UniProt P62344); conditions: Compound concentration 100.0 nM
# [4] = tested on: Mast/stem cell growth factor receptor Kit (Homo sapiens), P10721 [D816H]; conditions: Compound concentration 100.0 nM
# [5] = target: SRSF protein kinase 1 (Homo sapiens) (UniProt Q96SB4); conditions: Compound concentration 100.0 nM
# [6] = target: Mitogen-activated protein kinase kinase kinase 3 (Homo sapiens) (UniProt Q99759); conditions: Compound concentration 100.0 nM
# [7] = target: Vascular endothelial growth factor receptor 1 (Homo sapiens) (UniProt P17948); conditions: Compound concentration 100.0 nM
# [8] = target: 5-hydroxytryptamine receptor 2A (Homo sapiens) (UniProt P28223); conditions: Compound concentration 10.0 uM
# [9] = target: Mu-type opioid receptor (Homo sapiens) (UniProt P35372); conditions: Compound concentration 10.0 uM
# [10] = target: Angiopoietin-1 receptor (Homo sapiens) (UniProt Q02763); conditions: Compound concentration 100.0 nM
# [11] = target: Serine/threonine-protein kinase Nek7 (Homo sapiens) (UniProt Q8TDX7); conditions: Compound concentration 100.0 nM
# [12] = target: Macrophage-stimulating protein receptor (Homo sapiens) (UniProt Q04912); conditions: Compound concentration 100.0 nM
# [13] = target: Ephrin type-B receptor 3 (Homo sapiens) (UniProt P54753); conditions: Compound concentration 100.0 nM
# [14] = target: Mitogen-activated protein kinase 9 (Homo sapiens) (UniProt P45984); conditions: Compound concentration 100.0 nM
# [15] = target: Activin receptor type-1-like (Homo sapiens) (UniProt P37023); conditions: Compound concentration 100.0 nM
# [16] = target: Atypical kinase COQ8B, mitochondrial (Homo sapiens) (UniProt Q96D53); conditions: Compound concentration 100.0 nM
# [17] = target: Eukaryotic translation initiation factor 2-alpha kinase 1 (Homo sapiens) (UniProt Q9BQI3); conditions: Compound concentration 100.0 nM
# [18] = target: Mitogen-activated protein kinase kinase kinase 14 (Homo sapiens) (UniProt Q99558); conditions: Compound concentration 100.0 nM
# [19] = target: cAMP-dependent protein kinase catalytic subunit beta (Homo sapiens) (UniProt P22694); conditions: Compound concentration 100.0 nM
# [20] = target: Serine/threonine-protein kinase D3 (Homo sapiens) (UniProt O94806); conditions: Compound concentration 100.0 nM
# [21] = target: Misshapen-like kinase 1 (Homo sapiens) (UniProt Q8N4C8); conditions: Compound concentration 100.0 nM
# [22] = target: Cyclin-dependent kinase 2 homolog (Plasmodium falciparum (isolate 3D7)) (UniProt P61075); conditions: Compound concentration 100.0 nM
# [23] = target: Serine/threonine-protein kinase 32C (Homo sapiens) (UniProt Q86UX6); conditions: Compound concentration 100.0 nM
# [24] = target: Cyclin-dependent kinase 19 (Homo sapiens) (UniProt Q9BWU1); conditions: Compound concentration 100.0 nM
# [25] = target: Ribosomal protein S6 kinase alpha-1 (Homo sapiens) (UniProt Q15418); conditions: Compound concentration 100.0 nM
# [26] = target: RAC-alpha serine/threonine-protein kinase (Homo sapiens) (UniProt P31749); conditions: Compound concentration 100.0 nM
# [27] = tested on: Receptor-type tyrosine-protein kinase FLT3 (Homo sapiens), P36888 [UNDEFINED MUTATION]; conditions: Compound concentration 100.0 nM
# [28] = tested on: Hepatocyte growth factor receptor (Homo sapiens), P08581 [Y1235D]; conditions: Compound concentration 100.0 nM
# [29] = tested on: Proto-oncogene tyrosine-protein kinase receptor Ret (Homo sapiens), P07949 [V804M]; conditions: Compound concentration 100.0 nM
# [30] = target: Death-associated protein kinase 3 (Homo sapiens) (UniProt O43293); conditions: Compound concentration 100.0 nM
# [31] = target: Serine/threonine-protein kinase 25 (Homo sapiens) (UniProt O00506); conditions: Compound concentration 100.0 nM
# [32] = target: Calcium/calmodulin-dependent protein kinase kinase 2 (Homo sapiens) (UniProt Q96RR4); conditions: Compound concentration 100.0 nM
# [33] = target: Mitogen-activated protein kinase kinase kinase kinase 4 (Homo sapiens) (UniProt O95819); conditions: Compound concentration 100.0 nM
# [34] = target: Mitotic checkpoint serine/threonine-protein kinase BUB1 (Homo sapiens) (UniProt O43683); conditions: Compound concentration 100.0 nM
# [35] = target: Cyclin-dependent kinase 8 (Homo sapiens) (UniProt P49336); conditions: Compound concentration 100.0 nM
# [36] = target: High affinity cGMP-specific 3',5'-cyclic phosphodiesterase 9A (Homo sapiens, UniProt O76083); experiment: Biochemical assay (PDE9A)
# [37] = target: Death-associated protein kinase 2 (Homo sapiens) (UniProt Q9UIK4); conditions: Compound concentration 100.0 nM
# [38] = target: Serine/threonine-protein kinase MRCK alpha (Homo sapiens) (UniProt Q5VT25); conditions: Compound concentration 100.0 nM
# [39] = tested on: Receptor-type tyrosine-protein kinase FLT3 (Homo sapiens), P36888 [K663Q]; conditions: Compound concentration 100.0 nM
# [40] = target: Phosphatidylinositol 5-phosphate 4-kinase type-2 beta (Homo sapiens) (UniProt P78356); conditions: Compound concentration 100.0 nM
# [41] = target: TGF-beta receptor type-2 (Homo sapiens) (UniProt P37173); conditions: Compound concentration 100.0 nM
# [42] = target: Cyclin-dependent kinase 16 (Homo sapiens) (UniProt Q00536); conditions: Compound concentration 100.0 nM
# [43] = target: Serine/threonine-protein kinase pim-2 (Homo sapiens) (UniProt Q9P1W9); conditions: Compound concentration 100.0 nM
# [44] = target: Non-receptor tyrosine-protein kinase TNK1 (Homo sapiens) (UniProt Q13470); conditions: Compound concentration 100.0 nM
# [45] = target: Tyrosine-protein kinase ZAP-70 (Homo sapiens) (UniProt P43403); conditions: Compound concentration 100.0 nM
# Macrophage-stimulating protein receptor (Homo sapiens), sequence (Q04912 25-304 limits assumed): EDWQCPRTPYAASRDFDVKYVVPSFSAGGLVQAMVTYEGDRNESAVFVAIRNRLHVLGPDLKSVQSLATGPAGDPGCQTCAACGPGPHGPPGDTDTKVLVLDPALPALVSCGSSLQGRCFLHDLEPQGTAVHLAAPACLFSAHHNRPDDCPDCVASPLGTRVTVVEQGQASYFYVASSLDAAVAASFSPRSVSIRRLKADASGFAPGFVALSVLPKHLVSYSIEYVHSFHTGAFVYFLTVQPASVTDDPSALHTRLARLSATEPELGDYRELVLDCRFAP
# Macrophage-stimulating protein receptor (Homo sapiens), sequence (Q04912 310-1400 limits assumed): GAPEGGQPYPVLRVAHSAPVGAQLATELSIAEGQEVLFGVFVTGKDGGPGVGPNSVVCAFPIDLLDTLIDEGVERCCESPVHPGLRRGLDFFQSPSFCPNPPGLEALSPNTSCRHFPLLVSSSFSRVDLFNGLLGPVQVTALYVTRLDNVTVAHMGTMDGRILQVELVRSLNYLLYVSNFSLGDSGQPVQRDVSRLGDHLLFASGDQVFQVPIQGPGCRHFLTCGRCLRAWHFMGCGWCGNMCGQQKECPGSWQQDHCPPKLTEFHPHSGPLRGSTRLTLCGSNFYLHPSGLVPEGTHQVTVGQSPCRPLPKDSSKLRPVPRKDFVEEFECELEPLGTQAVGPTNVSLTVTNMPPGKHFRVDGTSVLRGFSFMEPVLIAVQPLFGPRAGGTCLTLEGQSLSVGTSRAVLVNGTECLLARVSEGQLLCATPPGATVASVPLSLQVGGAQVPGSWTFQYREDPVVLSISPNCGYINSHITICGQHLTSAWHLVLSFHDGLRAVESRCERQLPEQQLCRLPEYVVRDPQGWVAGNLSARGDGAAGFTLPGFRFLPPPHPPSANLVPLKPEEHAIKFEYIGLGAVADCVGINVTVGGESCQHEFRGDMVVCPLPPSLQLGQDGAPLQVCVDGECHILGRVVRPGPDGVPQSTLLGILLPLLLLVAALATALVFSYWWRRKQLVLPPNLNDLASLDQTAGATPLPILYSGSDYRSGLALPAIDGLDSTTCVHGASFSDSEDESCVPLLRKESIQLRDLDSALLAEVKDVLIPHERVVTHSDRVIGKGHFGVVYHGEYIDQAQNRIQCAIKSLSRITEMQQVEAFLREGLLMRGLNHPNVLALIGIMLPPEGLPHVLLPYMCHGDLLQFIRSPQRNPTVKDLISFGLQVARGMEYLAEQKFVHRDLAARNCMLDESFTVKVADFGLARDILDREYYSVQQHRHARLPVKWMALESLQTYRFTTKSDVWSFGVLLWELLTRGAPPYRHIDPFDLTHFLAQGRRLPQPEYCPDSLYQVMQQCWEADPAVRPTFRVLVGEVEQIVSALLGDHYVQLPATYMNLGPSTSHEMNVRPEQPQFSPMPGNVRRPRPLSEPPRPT
# Cyclin-dependent kinase 8 (Homo sapiens), sequence (P49336 whole entry): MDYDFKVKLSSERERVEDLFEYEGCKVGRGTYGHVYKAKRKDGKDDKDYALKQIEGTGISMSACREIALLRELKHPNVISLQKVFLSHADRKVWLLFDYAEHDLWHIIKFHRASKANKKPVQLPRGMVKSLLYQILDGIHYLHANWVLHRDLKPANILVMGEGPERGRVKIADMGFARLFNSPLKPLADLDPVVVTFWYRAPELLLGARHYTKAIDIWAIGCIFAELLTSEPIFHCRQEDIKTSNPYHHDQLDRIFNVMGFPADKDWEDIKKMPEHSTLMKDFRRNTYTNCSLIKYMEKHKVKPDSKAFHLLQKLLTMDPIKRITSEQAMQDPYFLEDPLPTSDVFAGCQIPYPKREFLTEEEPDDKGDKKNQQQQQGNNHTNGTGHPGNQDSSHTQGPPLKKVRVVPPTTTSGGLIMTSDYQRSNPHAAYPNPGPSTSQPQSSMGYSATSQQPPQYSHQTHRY
# Misshapen-like kinase 1 (Homo sapiens), sequence (Q8N4C8 whole entry, looked up): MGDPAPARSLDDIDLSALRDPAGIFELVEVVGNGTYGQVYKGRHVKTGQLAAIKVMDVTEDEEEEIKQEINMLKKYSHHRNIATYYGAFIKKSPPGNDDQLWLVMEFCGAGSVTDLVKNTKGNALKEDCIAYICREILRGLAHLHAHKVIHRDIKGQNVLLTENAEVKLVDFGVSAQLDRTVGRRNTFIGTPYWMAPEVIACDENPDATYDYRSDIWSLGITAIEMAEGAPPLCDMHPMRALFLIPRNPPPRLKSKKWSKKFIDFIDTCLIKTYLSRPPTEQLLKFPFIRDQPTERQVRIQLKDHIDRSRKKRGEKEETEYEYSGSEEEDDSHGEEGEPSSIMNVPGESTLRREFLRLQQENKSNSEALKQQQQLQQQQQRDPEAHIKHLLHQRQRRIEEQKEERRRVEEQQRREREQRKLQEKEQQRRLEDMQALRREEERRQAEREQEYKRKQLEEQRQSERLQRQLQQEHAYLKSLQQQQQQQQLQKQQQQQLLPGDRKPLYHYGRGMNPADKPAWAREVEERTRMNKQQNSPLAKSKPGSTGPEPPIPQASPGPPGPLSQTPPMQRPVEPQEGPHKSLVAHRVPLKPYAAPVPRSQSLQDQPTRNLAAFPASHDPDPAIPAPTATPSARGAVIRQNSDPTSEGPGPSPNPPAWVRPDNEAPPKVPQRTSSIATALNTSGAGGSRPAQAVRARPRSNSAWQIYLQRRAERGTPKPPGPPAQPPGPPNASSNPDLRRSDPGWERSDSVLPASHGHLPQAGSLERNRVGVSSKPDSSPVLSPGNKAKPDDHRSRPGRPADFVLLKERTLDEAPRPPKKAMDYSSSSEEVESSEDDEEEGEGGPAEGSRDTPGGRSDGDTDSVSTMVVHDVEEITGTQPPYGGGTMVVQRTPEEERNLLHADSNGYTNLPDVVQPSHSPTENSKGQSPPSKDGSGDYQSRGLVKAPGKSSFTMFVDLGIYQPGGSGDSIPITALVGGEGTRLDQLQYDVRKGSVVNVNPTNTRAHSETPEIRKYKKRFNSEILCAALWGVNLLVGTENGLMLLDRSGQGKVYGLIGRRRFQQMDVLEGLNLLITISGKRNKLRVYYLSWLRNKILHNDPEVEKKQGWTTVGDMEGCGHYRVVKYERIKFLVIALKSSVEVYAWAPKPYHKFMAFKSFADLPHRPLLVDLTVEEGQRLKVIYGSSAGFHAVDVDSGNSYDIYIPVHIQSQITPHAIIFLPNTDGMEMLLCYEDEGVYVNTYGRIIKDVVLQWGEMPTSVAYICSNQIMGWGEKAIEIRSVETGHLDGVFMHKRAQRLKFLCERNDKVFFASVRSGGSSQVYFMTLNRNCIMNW
# Cyclin-dependent kinase 19 (Homo sapiens), sequence (Q9BWU1 whole entry): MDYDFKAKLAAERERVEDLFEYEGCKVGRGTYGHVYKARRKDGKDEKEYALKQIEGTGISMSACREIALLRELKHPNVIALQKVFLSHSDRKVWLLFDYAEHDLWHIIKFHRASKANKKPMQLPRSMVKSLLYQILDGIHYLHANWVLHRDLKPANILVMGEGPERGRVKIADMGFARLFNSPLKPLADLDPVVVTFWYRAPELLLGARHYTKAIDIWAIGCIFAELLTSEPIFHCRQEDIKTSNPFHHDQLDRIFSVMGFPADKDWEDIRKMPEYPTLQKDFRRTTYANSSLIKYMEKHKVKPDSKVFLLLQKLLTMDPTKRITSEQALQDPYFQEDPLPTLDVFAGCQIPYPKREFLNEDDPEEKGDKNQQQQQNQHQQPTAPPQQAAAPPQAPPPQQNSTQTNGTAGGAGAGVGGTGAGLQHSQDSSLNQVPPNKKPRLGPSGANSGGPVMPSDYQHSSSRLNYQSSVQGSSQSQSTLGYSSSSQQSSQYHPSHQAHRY
# Serine/threonine-protein kinase 25 (Homo sapiens), sequence (O00506 whole entry, looked up): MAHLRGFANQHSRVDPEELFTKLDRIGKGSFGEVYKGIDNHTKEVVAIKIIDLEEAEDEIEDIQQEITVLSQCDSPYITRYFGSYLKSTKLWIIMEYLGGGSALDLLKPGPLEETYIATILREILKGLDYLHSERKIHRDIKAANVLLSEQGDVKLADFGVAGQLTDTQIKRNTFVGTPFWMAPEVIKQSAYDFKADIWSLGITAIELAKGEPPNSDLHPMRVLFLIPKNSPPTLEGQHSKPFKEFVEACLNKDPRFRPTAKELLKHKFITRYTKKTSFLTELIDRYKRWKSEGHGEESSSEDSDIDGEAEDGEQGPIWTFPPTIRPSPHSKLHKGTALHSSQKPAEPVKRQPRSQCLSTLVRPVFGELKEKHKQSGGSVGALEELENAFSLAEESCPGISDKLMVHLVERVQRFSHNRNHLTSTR
# Calcium/calmodulin-dependent protein kinase kinase 2 (Homo sapiens), sequence (Q96RR4 2-588 limits assumed): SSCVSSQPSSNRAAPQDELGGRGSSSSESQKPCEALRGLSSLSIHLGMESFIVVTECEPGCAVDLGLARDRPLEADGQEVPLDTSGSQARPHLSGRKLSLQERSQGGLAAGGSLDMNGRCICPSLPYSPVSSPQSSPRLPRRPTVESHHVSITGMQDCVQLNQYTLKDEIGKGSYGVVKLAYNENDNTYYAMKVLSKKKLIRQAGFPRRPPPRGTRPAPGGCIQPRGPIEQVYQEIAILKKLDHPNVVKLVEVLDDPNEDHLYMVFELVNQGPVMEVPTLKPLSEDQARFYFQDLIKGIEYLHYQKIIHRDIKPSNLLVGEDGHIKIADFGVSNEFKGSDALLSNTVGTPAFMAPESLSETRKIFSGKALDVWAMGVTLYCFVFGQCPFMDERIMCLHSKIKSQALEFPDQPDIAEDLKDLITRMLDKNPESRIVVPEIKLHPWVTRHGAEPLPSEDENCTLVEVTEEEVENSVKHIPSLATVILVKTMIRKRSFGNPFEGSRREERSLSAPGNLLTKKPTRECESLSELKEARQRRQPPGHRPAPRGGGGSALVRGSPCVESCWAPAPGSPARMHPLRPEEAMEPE
# Serine/threonine-protein kinase pim-2 (Homo sapiens), sequence (Q9P1W9 whole entry, looked up): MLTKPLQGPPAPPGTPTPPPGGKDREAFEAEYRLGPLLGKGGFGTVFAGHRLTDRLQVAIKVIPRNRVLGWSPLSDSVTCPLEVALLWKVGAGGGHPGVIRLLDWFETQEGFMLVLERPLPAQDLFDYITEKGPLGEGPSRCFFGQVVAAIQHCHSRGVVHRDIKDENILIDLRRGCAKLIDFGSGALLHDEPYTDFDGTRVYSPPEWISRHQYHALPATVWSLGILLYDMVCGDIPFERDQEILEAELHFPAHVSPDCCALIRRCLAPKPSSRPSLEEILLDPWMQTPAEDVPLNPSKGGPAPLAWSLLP
smiles,measurement,setting,value
COCCOc1nc(-c2ccc(Cl)nc2)nc2c1CN(C(=O)c1ncn3ccccc13)CC2 [THPP-1],residual activity,[1],100%
same,residual activity,[2],100%
same,residual activity,[3],100%
same,residual activity,[4],68%
same,residual activity,[5],86%
same,residual activity,[6],96%
same,residual activity,[7],87%
same,inhibition,[8],-1.4%
same,inhibition,[9],-0.32%
same,residual activity,[10],100%
same,residual activity,[11],100%
same,residual activity,[12],100%
same,residual activity,[13],100%
same,residual activity,[14],76%
same,residual activity,[15],100%
same,residual activity,[16],100%
same,residual activity,[17],100%
same,residual activity,[18],100%
same,residual activity,[19],73%
same,residual activity,[20],94%
same,residual activity,[21],100%
same,residual activity,[22],100%
same,residual activity,[23],100%
same,residual activity,[24],63%
same,residual activity,[25],100%
same,residual activity,[26],82%
same,residual activity,[27],100%
same,residual activity,[28],100%
same,residual activity,[29],89%
same,residual activity,[30],100%
same,residual activity,[31],100%
same,residual activity,[32],100%
same,residual activity,[33],73%
same,residual activity,[34],82%
same,residual activity,[35],100%
same,Ki,[36],> 50 µM (not active)
same,residual activity,[37],100%
same,residual activity,[38],100%
same,residual activity,[39],100%
same,residual activity,[40],59%
same,residual activity,[41],94%
same,residual activity,[42],100%
same,residual activity,[43],98%
same,residual activity,[44],100%
same,residual activity,[45],95%
CC(C)CC(=O)N1CCc2nc(-c3ccc(Br)cc3)nc(N(C)Cc3ccccc3)c2C1 [THPP-1-NC],residual activity,[1],99%
same,residual activity,[2],100%
same,residual activity,[3],100%
same,residual activity,[4],71%
same,residual activity,[5],99%
same,residual activity,[6],77%
same,residual activity,[7],100%
same,inhibition,[8],3%
same,inhibition,[9],-0.75%
same,residual activity,[10],100%
same,residual activity,[11],100%
same,residual activity,[12],100%
same,residual activity,[13],100%
same,residual activity,[14],72%
same,residual activity,[15],99%
same,residual activity,[16],100%
same,residual activity,[17],100%
same,residual activity,[18],100%
same,residual activity,[19],82%
same,residual activity,[20],100%
same,residual activity,[21],100%
same,residual activity,[22],100%
same,residual activity,[23],98%
same,residual activity,[24],62%
same,residual activity,[25],100%
same,residual activity,[26],92%
same,residual activity,[27],92%
same,residual activity,[28],100%
same,residual activity,[29],82%
same,residual activity,[30],100%
same,residual activity,[31],100%
same,residual activity,[32],100%
same,residual activity,[33],84%
same,residual activity,[34],78%
same,residual activity,[35],82%
same,Ki,[36],> 54.6 µM (not active)
same,residual activity,[37],100%
same,residual activity,[38],100%
same,residual activity,[39],100%
same,residual activity,[40],61%
same,residual activity,[41],97%
same,residual activity,[42],100%
same,residual activity,[43],100%
same,residual activity,[44],100%
same,residual activity,[45],91%
